One assay has as its system Streptococcus pneumoniae. Put plainly: Broth microdilution MIC (CLSI) in 4% LHB-CAMHB, Example 1. It counts as cell-based. As to conditions: Streptococcus pneumoniae, read-out: MIC. As to the method:
The powder was dissolved in 10 mL DMSO and 1 mL volumes were aliquoted into eppendorf tubes and stored at -80° C. […] Serial dilutions were prepared in 96 well plates were set up in a safety cabinet according to methods standard in the art. Briefly: 90 μL of the working antibiotic solution was added to each well in Column 12 of the plate, and mixed well, before 90 μL was transferred to column 11. The solutions were mixed again, and then transferred to the next column as before, continuing the dilutions through to column 3. Mixing the well requires the pick up and expulsion of 90 μL in each well 3-4 times before picking up and transferring the 90 μL to the next well. […] The bacterial solution was placed into a sterile trough and 10 μL of bacterial solution added into wells 2 through to 12 on each required row (dilution of 1:10, with final concentration of bacteria in wells=5×10^5 CFU/mL). The tray was sealed and incubated at 37° C. for 18-24 h. The purity of bacterial suspension was confirmed by streaking out 50 μL of the 1:20 dilution onto a SBA plate, which was incubated for 37° C. for 18 h and examined. Viable counts were carried out to ensure that the correct concentration of bacteria and been added to the wells. […] The following day the number of colonies on the plates was counted and the average count in 100 μL obtained. The study was multiplied by 10 to obtain a viable bacterial count per mL. Minimum inhibitory concentrations (μg/mL) were determined using the broth microdilution method recommended by the Clinical and Laboratory Standards Institute (CLSI) (Methods for Dilution Antimicrobial Susceptibility Tests for Bacteria That Grow Aerobically; Approved Standard-Seventh Edition. CLSI M7-A7, 2006; Performance Standards for Antimicrobial Disk and Dilution Susceptibility Tests for Bacteria Isolated from Animals; Approved Standard-Second Edition. CLSI […]-A2, 2002; Performance Standards for Antimicrobial Susceptibility Testing; CLSI M2-A9, 2006). […] Bacterial growth (turbidity) in the wells with antimicrobial was compared with the amount of growth (turbidity) in the growth-control well (containing no antimicrobial). All isolates were tested in duplicate, if there was a difference of greater than one two-fold dilution in the results, the test was repeated a third time. The purity of the isolates was closely monitored during testing by subculturing the prepared bacterial inoculum onto SBA. Control organisms (Enterococcus faecalis strain ATCC 29212, S. aureus strain ATCC 29213 and S. pneumoniae strain ATCC 49619) were used throughout the testing to monitor quality control. […] The MIC50, MIC90 and MIC range (minimum and maximum) were calculated for each of the bacterial groups.

A further assay has as its system MRSA. The experiment in a line: Broth microdilution MIC, Example 7 (NCL812 and analogues). The class given is cell-based, Staphylococcus aureus. As to conditions: for MIC: Staphylococcus aureus, MRSA. The essentials:
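MICs in μg/ml were read as growth inhibition by eye, checked at 600 nm absorbance against drug-free wells, following CLSI broth microdilution. Strains: two MRSA, two VRE; duplicates, repeated once more when results diverged beyond one dilution step.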
In general terms: Broth dilution looks for growth in wells or tubes with falling amounts of substance.

Converted amounts (≈) assume the structure as drawn. Like-named read-outs stand apart in the source and are kept apart here.

The values below come from patent US10253002B2, “Compounds and methods of treating infections” (Neoculi Pty Ltd., priority 2013, dated 2019).

Regarding `N=C(N/N=C/c1ccc(Cl)cc1)N/N=C/c1ccc(Cl)cc1` [NCL812, 1,3-bis[(E)-(4-chlorophenyl)methyleneamino]guanidine], the MIC with Streptococcus pneumoniae (Strep. pneumoniae 3, Test 2) was 2 µg/mL (≈ 5.98 µM); in the assay with Streptococcus pneumoniae (Strep. pneumoniae 16, Test 1), 0.5 µg/mL (≈ 1.5 µM); with Streptococcus pneumoniae (Strep. pneumoniae 16, Test 2), 1 µg/mL (≈ 2.99 µM); with MRSA (MRSA 616, Phase I, 1st, read-out: MIC), 8 µg/mL (≈ 23.9 µM); in the assay on MRSA (MRSA 718, Phase I, 2nd, read-out: MIC) it was 8 µg/mL (≈ 23.9 µM); with MRSA (MRSA 747, Phase I, 1st, read-out: MIC), 8 µg/mL (≈ 23.9 µM). In addition, the MIC in the assay on MRSA (bioassay ranking, read-out: MRSA) came to 3 µg/mL (≈ 8.98 µM). The “MIC (μg/ml) at 24 hours, MRSA 2” value with MRSA (isolate MRSA 2, 24 hours, 1st and 2nd replicate rows) was 2 µg/mL (≈ 5.98 µM).
